In general, IC50 refers to the concentration that gives 50% inhibition.

The text below walks through data of ChEMBL document CHEMBL1133158, “Beta-carbonyl substituted glutathione conjugates as inhibitors Of O. volvulus GST2” (Bioorg Med Chem Lett, 2000).

The target in test [1] is Glutathione S-transferase P (Homo sapiens, UniProt P09211). Description: Inhibitory activity against human Glutathione S-transferase P.
Test [2] is described as follows: Selectivity of compound for piGST to that of OvGST2.

Molecules are shown by their SMILES.

Chain of Glutathione S-transferase P (P09211 whole entry): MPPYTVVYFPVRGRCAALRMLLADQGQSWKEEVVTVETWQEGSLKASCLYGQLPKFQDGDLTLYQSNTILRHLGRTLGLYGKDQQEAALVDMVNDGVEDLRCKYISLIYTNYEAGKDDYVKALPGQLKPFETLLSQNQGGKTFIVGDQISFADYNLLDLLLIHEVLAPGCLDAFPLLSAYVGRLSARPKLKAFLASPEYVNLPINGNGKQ

`CCC(=O)CC(C)SCC(NC(=O)CCC(N)C(=O)O)C(=O)NCC(=O)O` (stereo unspecified) yielded an IC50 in test [1] of 217 µM.
On the same count and under the same terms, next, `CCC(CC(C)=O)SCC(NC(=O)CCC(N)C(=O)O)C(=O)NCC(=O)O` (stereo unspecified): 5.2 µM.
The compound `CCCOC(=O)CC(SCC(NC(=O)CCC(N)C(=O)O)C(=O)NCC(=O)O)C(=O)OCCC` (stereo unspecified) showed an IC50 in test [1] above 250 µM.
The compound `CCCCOC(=O)CC(SCC(NC(=O)CCC(N)C(=O)O)C(=O)NCC(=O)O)C(=O)O` (stereo unspecified) registered a Selectivity in test [2] of 0.8. Also, the IC50 in test [1] is 40.3 µM.
As to `CC(C)C(=O)CC(SCC(NC(=O)CCC(N)C(=O)O)C(=O)NCC(=O)O)c1ccccc1` (stereo unspecified), the Selectivity in test [2] is above 7.8. This compound had an IC50 in test [1] above 250 µM.
Regarding `COC(=O)CC(SCC(NC(=O)CCC(N)C(=O)O)C(=O)NCC(=O)O)C(=O)OC` (stereo unspecified), the IC50 in test [1] came to 208 µM.
`CCCC(CC(C)=O)SCC(NC(=O)CCC(N)C(=O)O)C(=O)NCC(=O)O` (stereo unspecified) had a Selectivity in test [2] of 1.3. This compound also returned an IC50 in test [1] of 8.1 µM.
In turn, `CC(=O)CC(SCC(NC(=O)CCC(N)C(=O)O)C(=O)NCC(=O)O)c1ccccc1` (stereo unspecified) came in with an IC50 in test [1] of 155 µM.
In test [2], `NC(CCC(=O)NC(CSC1CCCC(=O)C1)C(=O)NCC(=O)O)C(=O)O` (stereo unspecified) returned a Selectivity above 1.1. The compound further had an IC50 in test [1] above 250 µM.
Consider `CC(=O)CC(SCC(NC(=O)CCC(N)C(=O)O)C(=O)NCC(=O)O)C(C)C` (stereo unspecified), for which, in test [1], the concentration for half-maximal inhibition (IC50) was above 250 µM.
Take `NC(CCC(=O)NC(CSC(CC(=O)O)C(=O)O)C(=O)NCC(=O)O)C(=O)O` (stereo unspecified): the Selectivity in test [2] is above 13.9. This compound also yielded an IC50 in test [1] above 250 µM.
